Key:
[1] = system: SUM159 cells; assay: Annexin V and PI flow cytometry, SUM159 cells; assay type: cell-based, human; settings: SUM159, 8-12 hours, vs DMSO
Procedure: (§1) Flow cytometry analysis. Flow cytometry was performed to detect cell apoptosis. The APC Annexin V Apoptosis Detection Kit (Biolegend, San Diego, CA, USA) was used for Annexin V staining. Cells were seeded in a 35 mm culture dish at a density of 1×10^5 cells/dish. After overnight incubation, cells were treated with DMSO or LLL12B for 8-12 hours. Cells were harvested and stained with Annexin V-APC and propidium iodide (PI) according to the manufacturer's instructions. After staining, cells were counted using a FACSCanto II flow cytometer (BD Biosciences, San Jose, CA, USA).

[2] = system: SUM159 cells; assay: Wound healing assay, SUM159 cells; assay type: cell-based, human; settings: SUM159, vs DMSO
Procedure: Wound healing assay. MDA-MB-231, SUM159, and 4T1 cells were seeded in a 6-well plate and cultured until fully confluent. A straight scratch crossing the monolayer was created using a 200 μl pipette tip and images of scratched areas were taken. Next, cells were treated with DMSO or LLL12B. Then, images were taken until the scratch of DMSO-treated cells was closed and the relative migration (%) was calculated.
Given the relevance between cancer cell migration and metastasis, cell migration was evaluated using wound healing assay following LLL12B and Talazoparib treatment.
In FIG. 12, L: LLL12B; T: Talazoparib; L0.5:0.5 μM LLL12B; L0.25:0.25 μM LLL12B; T0.5:0.5 μM Talazoparib; T10: 10 μM Talazoparib. In FIG. 13, L: LLL12B; T: Talazoparib; L0.5:0.5μ M LLL12B; T10: 10μ M Talazoparib; T20: 20μ M Talazoparib. In FIG. 14, L: LLL12B; T: Talazoparib; L0.5:0.5μ M LLL12B; T10: 10μ M Talazoparib; T20: 20μ M Talazoparib.
L: LLL12B; A: Abemaciclib; L0.5:0.5 μM LLL12B; A2.5:2.5 μM Abemaciclib; A1: 1 μM Abemaciclib

[3] = system: STAT3; assay: Western blot of P-STAT3 (Y705), STAT3, Cyclin D1, Cleaved Caspase-3 in MDA-MB-231 cells; assay type: cell-based, human; settings: MDA-MB-231, overnight
Procedure: (§2) (A) MDA-MB-231, SUM159, and 4T1 cell lines were treated with DMSO or LLL12B overnight and the expression levels of P-STAT3 (Y705), STAT3, Cyclin D1, and Cleaved Caspase-3 were analyzed by Western blot. GAPDH served as a protein loading control. (B) MDA-MB-231 cells were treated with DMSO or C188-9 overnight and the expression levels of P-STAT3 (Y705), STAT3, Cyclin D1, and Cleaved Caspase-3 were analyzed by Western blot. (C) MDA-MB-231, SUM159, and 4T1 cells were seeded in a 96-well plate and treated with DMSO or LLL12B for 5 hours and a Caspase-3/7 Fluorescence Assay Kit was used to detect the activation of caspase-3/7. (D) MDA-MB-231, SUM159, and 4T1 cell lines were treated with DMSO or LLL12B for 8-12 hours, and flow cytometry was performed to analyze annexin V and PI staining. The quantification of apoptotic cells was shown in the right panel. ** P<0.01, *** P<0.001 and ****P<0.0001.
(§3) SiRNA and transfection. STAT3 siRNA and Negative Control siRNA (Cell Signaling Technology, Danvers, MA, USA) were used to knock down STAT3 in MDA-MB-231, SUM159, and 4T1 cell lines. Cells were transfected with STAT3 siRNA or Negative Control siRNA using Lipofectamine RNAiMAX (Invitrogen, Carlsbad, CA, USA) according to the manufacturer's instructions. After 72 hours, cell viability was examined by MTT cell viability assay, and the transfection efficiency was examined by western blot.
(§4) Western blot. Cells were collected and total protein was extracted using cell lysis buffer (Cell Signaling Technology, Danvers, MA, USA). Protein concentration was determined using the Pierce BCA Protein Assay Kit (Thermo Fisher Scientific, Waltham, MA, USA) according to the manufacturer's instructions. Equal amounts of protein were separated by 10% SDS-PAGE gels and transferred to PVDF membranes. Membranes were blocked in 5% non-fat milk at room temperature and probed with specific antibodies P-STAT3 (Y705), STAT3, Cyclin D1, Cleaved Caspase-3, P-STAT1 (Y701), STAT1, P-ERK, ERK or GAPDH (1:1000, Cell Signaling Technology, Danvers, MA, USA) at 4° C. overnight. The blots were visualized using SuperSignal™ West Femto Maximum Sensitivity Substrate (Thermo Fisher Scientific, Waltham, MA, USA) and an Amersham Imager 680 (GE Healthcare Life Sciences, Marlborough, MA, USA) after incubating with horseradish peroxidase (HRP)-conjugated anti-rabbit secondary antibody (1:5000, Cell Signaling Technology, Danvers, MA, USA).

[4] = system: STAT3; assay: Western blot of P-STAT3 (Y705), STAT3, Cyclin D1, Cleaved Caspase-3 in SUM159 cells; assay type: cell-based, human; settings: SUM159, overnight, vs DMSO
Procedure: as §2, §3
as §4, with “The blots were visualized using SuperSignal™ West Femto Maximum Sensitivity Substrate (Thermo Fisher Scientific, Waltham, MA, USA) and an Amersham Imager 680 (GE Healthcare Life Sciences, Marlborough, MA, USA) after incubating with horseradish peroxidase (HRP)-conjugated anti-rabbit secondary antibody (1:5000, Cell Signaling Technology, Danvers, MA, USA).” left out

[5] = system: caspase-3/7; assay: Caspase-3/7 activity assay, MDA-MB-231 cells; assay type: cell-based, human; settings: MDA-MB-231, 5 hours, vs DMSO
Procedure: Caspase-3/7 activity assay. The Caspase-3/7 Fluorescence Assay Kit (Cayman, Ann Arbor, MI, USA) was used to detect the activation of caspase-3/7 and the assay was performed according to the manufacturer's instructions. Briefly, MDA-MB-231, SUM159, and 4T1 cells were seeded in a 96-well plate in triplicate. After overnight incubation, cells were treated with either LLL12B or DMSO for 5 hours. Cells were lysed and processed to measure caspase-3/7 activity and the fluorescence intensity was read (excitation=485 nm; emission=535 nm).

[6] = system: STAT1; assay: IFN-γ induced STAT1 phosphorylation, Western blot, MDA-MB-231 cells; assay type: cell-based, human; settings: pretreated 2 hours, 50 ng/ml IFN-γ 30 minutes
Procedure: (A) The chemical structures of LLL12B and LLL12. The carbamate ester bond of LLL12B is hydrolytically cleaved by the tumor-associated plasmin to release LLL12. (B) SUM159 cells were seeded in a 6-well plate and treated with LLL12B for 8 hours. Cells were stained with Phospho-Stat3 (Tyr705) and DAPI (indicated by arrows). Green: P-STAT3 (Y705); Blue: DAPI. T47D (C) and MDA-MB-231 (D) breast cancer cells were pretreated with DMSO or LLL12B in a serum-free medium for 2 hours and stimulated with 50 ng/ml of IL-6, IFN-γ, or EGF for additional 30 minutes. Cells were collected and analyzed by Western blot. GAPDH served as a protein loading control.
as §4, with “The blots were visualized using SuperSignal™ West Femto Maximum Sensitivity Substrate (Thermo Fisher Scientific, Waltham, MA, USA) and an Amersham Imager 680 (GE Healthcare Life Sciences, Marlborough, MA, USA) after incubating with horseradish peroxidase (HRP)-conjugated anti-rabbit secondary antibody (1:5000, Cell Signaling Technology, Danvers, MA, USA).” left out

[7] = system: 4T1 cells; assay: Annexin V and PI flow cytometry, 4T1 cells; assay type: cell-based, murine; settings: 4T1, 8-12 hours, vs DMSO
Procedure: as §1

`CN(C)C(=O)Oc1cccc2c1C(=O)c1cccc(S(N)(=O)=O)c1C2=O` [LLL12B] was tested, and the “percentage of apoptotic cells” value [1] was “significantly increased”, the “wound closure (cell migration)” value [2] was “effectively inhibited” and the “concentration that inhibited P-STAT3 and Cyclin D1 in Western blot” value [3] was 1 µM. The “Cyclin D1 expression” value ([3]; vs DMSO) was “decreased”, the “expression of Cleaved Caspase-3” value ([3]; vs DMSO) was “enhanced” and the “phosphorylation of STAT3” value ([3]; vs DMSO) was “decreased”. The “Cyclin D1 expression” value [4] was “decreased”, the “expression of Cleaved Caspase-3” value [4] was “enhanced” and the “phosphorylation of STAT3” value [4] was “decreased”. The “activation of caspase-3/7” value [5] was “induced the activation”, the “induction of P-STAT1 (Y701) stimulated by IFN-γ” value [6] was “did not inhibit” and the “percentage of apoptotic cells” value [7] was “significantly increased”.

Reference: patent publication US20250144054A1, “SMALL MOLECULE STAT3 INHIBITOR FOR TREATING TRIPLE NEGATIVE BREAST CANCER” (UNIVERSITY OF MARYLAND, BALTIMORE, priority 2022, published 2025)
